Tested on: cytosol and mitochondria of HCT116 cells
Assay: Subcellular fractionation: Iniparib-biotin labeling of cytosol and mitochondria
Type: cell-based, human
Method: Cells were homogenized in an ice-cold buffer containing 10 mM Tris-HCl, pH 7.5, protease and phosphatase inhibitors, and 250 mM sucrose in the case of mitochondria preparation, using a glass dounce tissue grinder (30 strokes). After centrifugation at 1,000×g for 5 min at 4° C., homogenates supernatants were collected. For cytosol preparation the 1000×g supernatants were submitted to differential centrifugation in Tris-HCl buffer: a first centrifugation was carried out at 22,000×g for 20 min and the resulting supernatants were further centrifuged at 100,000×g for 60 min. The final supernatants were referred to as the cytosolic fractions.
FIG. 11A and FIG. 11B show HCT116 cells were pre-treated or not for 48 h with 1 mM BSO. Thereafter Iniparib-biotin at 100 μM was added for 4 h. Cell homogenates were then processed for cytosol preparation (FIG. 11A) or mitochondria immuno-purification (FIG. 11B).
Cell homogenates were then processed for cytosol preparation or mitochondria immuno-purification. […]

With `O=C(CCCC[C@@H]1SC[C@@H]2NC(=O)N[C@@H]21)NCCNC(=O)c1ccc(I)c([N+](=O)[O-])c1` [Iniparib-biotin, 4-iodo-3-nitro-N-(2-(5-((3 aS,4S,6aR)-2-oxohexahydro-1H-thieno[3,4-d]imidazol-4-yl)pentanamido)ethyl)benzamide] the “in vitro labeling of isolated cytosolic fraction” value (30 μM Iniparib-biotin, with or without NADH/NADPH) was “mainly when NADPH was added” and the “protein targets in isolated cytosol and mitochondria” value (fractions from Iniparib-biotin treated HCT116 cells) was “present in both cell compartments”.

Source: US20200113852A1, “METHODS OF PATIENT SELECTION AND TREATING TRXR- OR PRDX-OVEREXPRESSED CANCERS” (TRIACT THERAPEUTICS, INC., priority 2017, published 2020)
